The kinase profiling compilation of Christmann-Franck et al. (2016)

Columns and labels:
Assay in all cases: radiometric filter-binding kinase assay
FGFR1 (human) = FGFR1 (human) (UniProt P11362)
[1] = biological target: STK11 CAB39 STRADA (human) (UniProt Q9Y376+Q7RTN6+Q15831)
INSR (human) = INSR (human) (UniProt P06213)
NEK6 (human) = NEK6 (human) (UniProt Q9HC98)
TTK (human) = TTK (human) (UniProt P33981)
MARK2 (human) = MARK2 (human) (UniProt Q7KZI7)
MAP2K6 (human) = MAP2K6 (human) (UniProt P52564)
MAPK11 (human) = MAPK11 (human) (UniProt Q15759)
Chain of MAPK11 (human) (Q15759 whole entry, looked up): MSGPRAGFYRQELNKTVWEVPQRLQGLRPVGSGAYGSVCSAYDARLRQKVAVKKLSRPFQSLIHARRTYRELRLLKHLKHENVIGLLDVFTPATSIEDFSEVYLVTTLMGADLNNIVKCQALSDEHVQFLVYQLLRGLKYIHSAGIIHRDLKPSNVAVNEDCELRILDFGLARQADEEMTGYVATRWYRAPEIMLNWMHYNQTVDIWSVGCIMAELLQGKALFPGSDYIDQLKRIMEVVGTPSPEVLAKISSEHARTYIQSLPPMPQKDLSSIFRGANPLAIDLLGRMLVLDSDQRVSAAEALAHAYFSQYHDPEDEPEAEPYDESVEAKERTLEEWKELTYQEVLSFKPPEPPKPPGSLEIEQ

PHKG1 (human) = PHKG1 (human) (UniProt Q16816)
[2] = test system: AKT1 (human), P31749 [S473D]
Chain of AKT1 (human), P31749 [S473D] (P31749 whole entry S473D, looked up): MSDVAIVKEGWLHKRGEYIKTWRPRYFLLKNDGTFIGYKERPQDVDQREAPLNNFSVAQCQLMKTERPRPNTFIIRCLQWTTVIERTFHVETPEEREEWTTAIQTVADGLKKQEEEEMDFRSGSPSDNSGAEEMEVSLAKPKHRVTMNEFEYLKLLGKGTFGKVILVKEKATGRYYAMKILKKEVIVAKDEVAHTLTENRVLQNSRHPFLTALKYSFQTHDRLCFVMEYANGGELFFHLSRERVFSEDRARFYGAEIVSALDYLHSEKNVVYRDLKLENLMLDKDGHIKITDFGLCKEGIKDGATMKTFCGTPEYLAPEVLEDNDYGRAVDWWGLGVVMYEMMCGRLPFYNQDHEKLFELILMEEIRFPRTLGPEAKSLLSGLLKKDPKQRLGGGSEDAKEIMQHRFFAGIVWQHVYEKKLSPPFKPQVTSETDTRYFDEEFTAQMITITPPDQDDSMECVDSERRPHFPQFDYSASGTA

MAPK10 (human) = MAPK10 (human) (UniProt P53779)
TBK1 (human) = TBK1 (human) (UniProt Q9UHD2)
CSNK2A1 (human) = CSNK2A1 (human) (UniProt P68400)
[3] = test system: AKT2 (human), P31751 [S474D]
PKN2 (human) = PKN2 (human) (UniProt Q16513)
SYK (human) = SYK (human) (UniProt P43405)
INSRR (human) = INSRR (human) (UniProt P14616)
[4] = test system: PAK2 (human), Q13177 [T402E]
Chain of PAK2 (human), Q13177 [T402E] (Q13177 whole entry T402E, looked up): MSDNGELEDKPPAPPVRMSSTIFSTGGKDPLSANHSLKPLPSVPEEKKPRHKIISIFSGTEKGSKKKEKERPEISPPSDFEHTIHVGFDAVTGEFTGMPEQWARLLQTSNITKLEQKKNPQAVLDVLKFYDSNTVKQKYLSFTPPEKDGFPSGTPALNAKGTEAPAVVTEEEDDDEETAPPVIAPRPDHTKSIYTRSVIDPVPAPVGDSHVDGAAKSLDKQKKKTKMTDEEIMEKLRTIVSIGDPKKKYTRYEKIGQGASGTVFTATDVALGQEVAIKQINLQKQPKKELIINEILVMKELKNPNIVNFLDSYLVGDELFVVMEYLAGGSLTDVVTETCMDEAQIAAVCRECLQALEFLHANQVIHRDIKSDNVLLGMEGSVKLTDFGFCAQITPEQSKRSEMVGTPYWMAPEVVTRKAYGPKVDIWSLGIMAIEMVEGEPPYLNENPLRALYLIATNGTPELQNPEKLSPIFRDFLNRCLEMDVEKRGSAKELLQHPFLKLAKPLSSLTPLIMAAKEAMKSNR

DYRK3 (human) = DYRK3 (human) (UniProt O43781); conditions: compound 1.0 µM
MAP3K9 (human) = MAP3K9 (human) (UniProt P80192)
PIM2 (human) = PIM2 (human) (UniProt Q9P1W9)
MKNK1 (human) = MKNK1 (human) (UniProt Q9BUB5)
NEK2 (human) = NEK2 (human) (UniProt P51955)
Chain of NEK2 (human) (P51955 whole entry, looked up): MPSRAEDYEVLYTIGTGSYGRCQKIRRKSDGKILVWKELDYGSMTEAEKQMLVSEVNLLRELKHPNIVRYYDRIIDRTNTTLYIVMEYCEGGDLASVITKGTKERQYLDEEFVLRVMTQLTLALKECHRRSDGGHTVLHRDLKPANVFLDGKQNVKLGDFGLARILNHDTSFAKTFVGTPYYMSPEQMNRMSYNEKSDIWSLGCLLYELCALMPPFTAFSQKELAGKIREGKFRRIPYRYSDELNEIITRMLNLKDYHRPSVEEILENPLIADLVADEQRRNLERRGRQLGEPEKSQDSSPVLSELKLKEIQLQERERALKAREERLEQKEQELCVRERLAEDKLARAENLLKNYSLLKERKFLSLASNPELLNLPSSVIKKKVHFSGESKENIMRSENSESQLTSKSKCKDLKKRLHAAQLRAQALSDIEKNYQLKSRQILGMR

GSK3B (human) = GSK3B (human) (UniProt P49841)
MAPK13 (human) = MAPK13 (human) (UniProt O15264); conditions: compound 1.0 µM
[5] = test system: RPS6KB1 (human), P23443 [T412E]
Chain of RPS6KB1 (human), P23443 [T412E] (P23443 whole entry T412E, looked up): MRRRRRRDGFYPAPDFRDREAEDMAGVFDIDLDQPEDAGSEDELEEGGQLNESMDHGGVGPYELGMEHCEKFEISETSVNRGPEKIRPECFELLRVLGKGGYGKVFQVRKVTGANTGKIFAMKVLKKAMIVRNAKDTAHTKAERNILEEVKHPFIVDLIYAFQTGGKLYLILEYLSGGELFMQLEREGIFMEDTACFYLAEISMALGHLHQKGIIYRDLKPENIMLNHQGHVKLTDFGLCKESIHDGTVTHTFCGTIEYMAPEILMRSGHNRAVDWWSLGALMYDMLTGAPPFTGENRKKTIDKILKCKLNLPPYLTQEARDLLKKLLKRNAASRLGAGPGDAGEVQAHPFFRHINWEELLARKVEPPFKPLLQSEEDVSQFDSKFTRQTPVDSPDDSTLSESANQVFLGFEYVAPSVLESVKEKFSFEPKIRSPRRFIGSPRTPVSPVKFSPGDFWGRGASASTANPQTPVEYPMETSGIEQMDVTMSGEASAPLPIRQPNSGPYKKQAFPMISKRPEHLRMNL

LCK (mouse) = conditions: accession and sequence are those of the human protein
MYLK (human) = MYLK (human) (UniProt Q15746)
MARK1 (human) = MARK1 (human) (UniProt Q9P0L2)
ROCK2 (rat) = conditions: accession and sequence are those of the human protein
IRAK4 (human) = IRAK4 (human) (UniProt Q9NWZ3)
Chain of IRAK4 (human) (Q9NWZ3 whole entry, looked up): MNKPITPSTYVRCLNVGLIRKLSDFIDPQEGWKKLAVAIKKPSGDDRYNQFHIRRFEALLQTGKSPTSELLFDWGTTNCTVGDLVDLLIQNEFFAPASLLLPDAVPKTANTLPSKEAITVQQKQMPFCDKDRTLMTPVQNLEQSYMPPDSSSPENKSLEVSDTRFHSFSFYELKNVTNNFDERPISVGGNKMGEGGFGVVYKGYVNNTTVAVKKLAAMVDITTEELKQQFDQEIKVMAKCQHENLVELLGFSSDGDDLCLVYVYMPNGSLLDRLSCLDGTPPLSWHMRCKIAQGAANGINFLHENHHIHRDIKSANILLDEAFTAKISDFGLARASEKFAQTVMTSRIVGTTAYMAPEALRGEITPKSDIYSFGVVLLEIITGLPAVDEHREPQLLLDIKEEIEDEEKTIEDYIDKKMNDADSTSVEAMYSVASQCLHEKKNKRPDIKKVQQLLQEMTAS

EPHA2 (human) = EPHA2 (human) (UniProt P29317); conditions: compound 0.1 µM
PIM3 (human) = PIM3 (human) (UniProt Q86V86)
SRPK1 (human) = SRPK1 (human) (UniProt Q96SB4)
MAP2K1 (human) = MAP2K1 (human) (UniProt Q02750)
Chain of MAP2K1 (human) (Q02750 whole entry, looked up): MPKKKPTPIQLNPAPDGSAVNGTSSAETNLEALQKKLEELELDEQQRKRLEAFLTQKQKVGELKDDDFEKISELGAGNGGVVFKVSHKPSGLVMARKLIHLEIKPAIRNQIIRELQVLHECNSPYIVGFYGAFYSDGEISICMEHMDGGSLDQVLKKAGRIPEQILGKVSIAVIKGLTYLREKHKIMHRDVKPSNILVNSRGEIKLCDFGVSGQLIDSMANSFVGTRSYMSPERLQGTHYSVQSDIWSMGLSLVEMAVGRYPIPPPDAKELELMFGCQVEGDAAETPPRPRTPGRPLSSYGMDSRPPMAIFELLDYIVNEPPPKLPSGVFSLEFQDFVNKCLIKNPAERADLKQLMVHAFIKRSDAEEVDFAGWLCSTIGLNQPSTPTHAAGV

EPHB1 (human) = EPHB1 (human) (UniProt P54762)

Chain of INSR (human) (P06213 whole entry, looked up): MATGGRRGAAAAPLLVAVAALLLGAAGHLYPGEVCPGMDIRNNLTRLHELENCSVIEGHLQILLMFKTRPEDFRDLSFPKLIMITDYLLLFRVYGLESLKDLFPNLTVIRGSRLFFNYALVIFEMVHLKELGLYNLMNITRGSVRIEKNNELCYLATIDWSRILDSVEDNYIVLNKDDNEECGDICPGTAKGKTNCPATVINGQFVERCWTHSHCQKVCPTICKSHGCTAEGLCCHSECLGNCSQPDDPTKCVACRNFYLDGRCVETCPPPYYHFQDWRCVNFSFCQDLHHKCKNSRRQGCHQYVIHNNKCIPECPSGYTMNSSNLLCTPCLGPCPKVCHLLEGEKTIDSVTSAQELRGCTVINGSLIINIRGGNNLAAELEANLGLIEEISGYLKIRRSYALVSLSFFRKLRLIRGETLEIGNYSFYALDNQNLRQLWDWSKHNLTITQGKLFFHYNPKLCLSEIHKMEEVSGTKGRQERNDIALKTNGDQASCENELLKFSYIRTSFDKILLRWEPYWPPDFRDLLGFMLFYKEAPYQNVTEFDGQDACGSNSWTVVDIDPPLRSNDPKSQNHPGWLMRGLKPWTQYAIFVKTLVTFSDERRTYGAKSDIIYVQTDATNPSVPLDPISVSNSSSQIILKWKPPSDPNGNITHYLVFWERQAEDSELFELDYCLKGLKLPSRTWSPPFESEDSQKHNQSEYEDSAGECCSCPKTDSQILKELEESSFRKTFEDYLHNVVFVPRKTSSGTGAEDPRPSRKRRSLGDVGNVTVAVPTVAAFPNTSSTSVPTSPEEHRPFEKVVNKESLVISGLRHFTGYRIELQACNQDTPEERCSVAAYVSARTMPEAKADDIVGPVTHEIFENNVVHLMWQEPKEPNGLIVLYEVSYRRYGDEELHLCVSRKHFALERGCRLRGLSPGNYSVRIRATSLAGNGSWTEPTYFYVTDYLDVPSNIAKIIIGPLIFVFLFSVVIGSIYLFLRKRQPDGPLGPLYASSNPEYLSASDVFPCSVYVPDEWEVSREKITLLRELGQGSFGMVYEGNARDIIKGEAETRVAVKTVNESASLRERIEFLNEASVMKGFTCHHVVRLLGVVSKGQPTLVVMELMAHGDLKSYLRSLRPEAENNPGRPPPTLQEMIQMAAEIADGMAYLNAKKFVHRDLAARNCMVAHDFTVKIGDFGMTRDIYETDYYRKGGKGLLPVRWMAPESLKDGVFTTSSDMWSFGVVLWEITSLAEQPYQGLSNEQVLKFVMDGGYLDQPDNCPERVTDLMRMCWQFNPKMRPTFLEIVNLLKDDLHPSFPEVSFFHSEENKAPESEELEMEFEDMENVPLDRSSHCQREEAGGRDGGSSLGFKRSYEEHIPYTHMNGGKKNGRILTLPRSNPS

COc1ccc(-n2ncc3cnc(Nc4cc(OC)c(OC)c(OCCCN5CCN(C)CC5)c4)nc32)cc1
residual activity (FGFR1 (human); compound 0.1 µM): 20% | residual activity (FGFR1 (human); compound 1.0 µM): 8% | residual activity ([1]; compound 0.1 µM): 119% | residual activity ([1]; compound 1.0 µM): 73% | residual activity (INSR (human); compound 0.1 µM): 79% | residual activity (INSR (human); compound 1.0 µM): 21% | residual activity (NEK6 (human); compound 0.1 µM): 89% | residual activity (NEK6 (human); compound 1.0 µM): 59% | residual activity (TTK (human); compound 0.1 µM): 81% | residual activity (TTK (human); compound 1.0 µM): 64% | residual activity (MARK2 (human); compound 0.1 µM): 67% | residual activity (MARK2 (human); compound 1.0 µM): 28% | residual activity (MAP2K6 (human); compound 0.1 µM): 99% | residual activity (MAP2K6 (human); compound 1.0 µM): 75% | residual activity (MAPK11 (human); compound 0.1 µM): 103% | residual activity (MAPK11 (human); compound 1.0 µM): 95% | residual activity (PHKG1 (human); compound 0.1 µM): 56% | residual activity (PHKG1 (human); compound 1.0 µM): 12% | residual activity ([2]; compound 0.1 µM): 99% | residual activity ([2]; compound 1.0 µM): 89% | residual activity (MAPK10 (human); compound 0.1 µM): 65% | residual activity (MAPK10 (human); compound 1.0 µM): 39% | residual activity (TBK1 (human); compound 0.1 µM): 14% | residual activity (TBK1 (human); compound 1.0 µM): 8% | residual activity (CSNK2A1 (human); compound 0.1 µM): 33% | residual activity (CSNK2A1 (human); compound 1.0 µM): 6% | residual activity ([3]; compound 0.1 µM): 88% | residual activity ([3]; compound 1.0 µM): 77% | residual activity (PKN2 (human); compound 0.1 µM): 57% | residual activity (PKN2 (human); compound 1.0 µM): 27% | residual activity (SYK (human); compound 0.1 µM): 58% | residual activity (SYK (human); compound 1.0 µM): 13% | residual activity (INSRR (human); compound 0.1 µM): 78% | residual activity (INSRR (human); compound 1.0 µM): 35% | residual activity ([4]; compound 0.1 µM): 50% | residual activity ([4]; compound 1.0 µM): 14% | residual activity (DYRK3 (human)): 10% | residual activity (MAP3K9 (human); compound 0.1 µM): 7% | residual activity (MAP3K9 (human); compound 1.0 µM): 6% | residual activity (PIM2 (human); compound 0.1 µM): 108% | residual activity (PIM2 (human); compound 1.0 µM): 106% | residual activity (MKNK1 (human); compound 0.1 µM): 59% | residual activity (MKNK1 (human); compound 1.0 µM): 17% | residual activity (NEK2 (human); compound 0.1 µM): 22% | residual activity (NEK2 (human); compound 1.0 µM): 3% | residual activity (GSK3B (human); compound 0.1 µM): 37% | residual activity (GSK3B (human); compound 1.0 µM): 6% | residual activity (MAPK13 (human)): 68% | residual activity ([5]; compound 0.1 µM): 70% | residual activity ([5]; compound 1.0 µM): 28% | residual activity (LCK (mouse); compound 0.1 µM): 10% | residual activity (LCK (mouse); compound 1.0 µM): 4% | residual activity (MYLK (human); compound 0.1 µM): 100% | residual activity (MYLK (human); compound 1.0 µM): 72% | residual activity (MARK1 (human); compound 0.1 µM): 63% | residual activity (MARK1 (human); compound 1.0 µM): 31% | residual activity (ROCK2 (rat); compound 0.1 µM): 49% | residual activity (ROCK2 (rat); compound 1.0 µM): 25% | residual activity (IRAK4 (human); compound 0.1 µM): 64% | residual activity (IRAK4 (human); compound 1.0 µM): 20% | residual activity (EPHA2 (human)): 28% | residual activity (PIM3 (human); compound 0.1 µM): 91% | residual activity (PIM3 (human); compound 1.0 µM): 63% | residual activity (SRPK1 (human); compound 0.1 µM): 104% | residual activity (SRPK1 (human); compound 1.0 µM): 87% | residual activity (MAP2K1 (human); compound 0.1 µM): 40% | residual activity (MAP2K1 (human); compound 1.0 µM): 13% | residual activity (EPHB1 (human); compound 0.1 µM): 8% | residual activity (EPHB1 (human); compound 1.0 µM): 3%
